The test system of data set [1] is isolated human hair follicles. Put plainly: in vitro hair follicle growth test (elongation of isolated human hair follicles in culture medium). The data set is classed as cell-based. Here is the method: The effect of compounds on hair growth was assessed using an in vitro test which measures the elongation of isolated human hair follicles in a culture medium.
This test includes the important step of isolating hair follicles having an undamaged hair bulb from human skin, for example, facelift skin, by microdissection.
The critical step of separating the hair follicle with intact undamaged hair bulb from the subcutaneous fatty tissue in which it is situated accordingly involves severing the hair shaft of the follicle at a point below the epidermis of skin surface, so as to leave the hair bulb intact and undamaged while still bearing a portion of the hair shaft.
Preferably, the hair shaft of the follicle is severed at the dermal-subcutaneous fat interface.
Any suitable cutting instrument can be employed to sever the hair shaft in this manner, but a keratotome or a scalpel are preferred.
The hair bulb with a hair Shaft stump attached is then isolated from the skin by mechanically separating the hair from loosely adhering subcutaneous fat which normally surrounds the hair bulb. This is achieved after the dermis or upper layer of the skin has been separated and removed, to avoid damaging the hair bulb as it is pulled away.
The hair bulb together with hair shaft stump attached, is then transferred in an otherwise undamaged and fully functioning, viable state to a nutrient medium.
The hair follicles isolated by the technique described herein are transferred to a suitable culture medium for subsequent testing of substances that can then influence their future development.
The procedure now to be described represents a preferred method of culture and testing of hair growth.
In accordance with the preferred method of culture, isolated hair follicles, […], are maintained in 1 ml of Williams E medium, either with or without a test hair growth substance, supplemented with […] (Penicillin and Streptomyein), Insulin (10 ng/ml) and Hydrocortisone (10 ng/ml). The medium was incubated at 37° C. in an atmosphere of 5% CO2 +95% air in individual wells of a 24 multiwell dish (Corning), which permits detailed measurements to be made of the length of individual hair follicles. The medium was refreshed once during the experiment after 4 days.
Williams E medium is available from FLOW Laboratory under Catalogue No. 12-502. […]
Daily growth rate and cumulative growth for each follicle were calculated by measuring the change in length of the follicles each day and from this the average of all the follicles was calculated.
The response of an isolated hair follicle to a test substance, can accordingly be assessed by measuring the increase in length, if any, in the presence of a test substance against a control. […]

Data set [2] can be described thus: storage stability in aqueous hair treatment composition (shampoo, conditioner or tonic). Format: physicochemical. Particulars: ambient temperature, 3 months. The text has this:
From these observations, it was realised that the αNH2 group of glutamine should be protected in order to stablise the molecule.

Setting [3] is: 2 mM in Williams E medium & glucose.

The structures appear in SMILES notation. Entries after “also recorded” stand apart in the source; their conditions may differ.

The source of these data is patent publication US5559092A, “Cosmetic composition” (Chesebrough-Pond's USA Co. Division of Conopco, Inc., priority 1992, dated 1996).

In the case of `NC(=O)CC[C@H](N)C(=O)O` [Glutamine, glutamine], in data set [1] (setting [3]), the “Amount of hair grown in one week” value came to 2.02 mm and the “Average daily rate of growth of hair over one week” value was 0.277 mm/d. Also, the “potency as hair growth promoter after storage” value in data set [1] (after 3 months storage at 20° C.) is listed as “diminished significantly”. In addition, in data set [1] (isolated human follicles in vitro, compared with the control), the “effect on linear hair growth (in words)” value was “potent promoter of linear hair growth; also recorded: significant increase in hair growth”. Further, in data set [2], the “stability during storage in aqueous hair treatment composition” value is “a significant amount of the glutamine had been converted to pyroglutamic acid and ammonia”.
